{"source": "paper PMC3436892", "about": "“Novel African Trypanocidal Agents: Membrane Rigidifying Peptides” (PLoS ONE, 2012)", "key": {"[1]": {"assay": "Parallax analysis of tryptophan penetration depth", "assay_type": "physicochemical", "conditions": "for F1/F2 ± S.D.: ratio of tryptophan fluorescence intensity (357 nm) with shallow (6,7-dibromo-PC, F1) and deep (9,10-dibromo-PC, F2) quencher, 200 µg/ml liposomes, at least triplicate", "method": "The hydrocarbon penetration depth of tryptophans spaced throughout synthetic peptides corresponding to SHP-1 or SHP-3 (Table S1) was determined by parallax analysis with brominated phosphatidylcholine liposomes. Large unilamellar liposomes composed of egg phosphatidylcholine and 10 mol % 1-palmitoyl-2-(6,7-dibromo)stearoyl-sn-glycero-3-phosphocholine (shallow quencher) or 1-palmitoyl-2-(9,10-dibromo)stearoyl-sn-glycero-3-phosphocholine (deep quencher) were constructed by hydration of a thin dry lipid film with phosphate buffered saline. Resulting multilamellar liposomes were made unilameller via extrusion through polycarbonate filters with 0.1 µm pores. Peptides (500 nM) were incubated with 200 µg/ml liposomes in phosphate buffered saline at 37°C for 22 h. Tryptophan fluorescence at 357 nm was measured from at least triplicate trials in the PerkinElmer Life Sciences LS55 spectrofluorometer and an excitation wavelength of 280 nm for SHP-1 and 290 nm for SHP-2, 10 nm excitation and 9 nm emission slit widths. The distance of tryptophans from the bilayer center (ZCF) is calculated from the equation [12]: [drawing 1] Where LC1 is the distance from the center of the bilayer to the shallow quencher, in this case 10.8 Å for 6,7-dibromo-PC [25], F1 is the intensity of tryptophan in the presence of the shallow quencher and F2 is the tryptophan intensity in the presence of the deep quencher, C is the mole fraction of quencher divided by the area of individual phospholipid (70 Å^2), and L21 is the difference in the depth of the two quenchers (2.7 Å). The hydrocarbon insertion depth of tryptophans is then given by one half the bilayer thickness, 29 Å [25], minus ZCF."}, "[2]": {"assay": "Calcein release (membrane interaction) assay", "assay_type": "physicochemical", "conditions": "unilamellar egg phosphatidylcholine liposomes with 30 mM calcein, PBS, 0.2-4 µM peptide, fluorescence 484/513 nm (Figure S2b, c)", "method": "Trypanosome killing and membrane interaction with SHP tryptophan variants. […] (b) The ability of SHP-1 tryptophan variants, 1 µM SHP-1ΔW1 (orange ? ), 1 µM SHP-1ΔW8 (green ? ), 0.2 µM SHP-1 (blue ? ) and 0.2 µM SHP-1ΔW18 (red ? ), and (c) SHP-3 tryptophan variants, 1 µM SHP-3ΔW1 (orange ? ), 1 µM SHP-3 (blue ? ), 1 µM SHP-3ΔW13 (red ? ) and 4 µM SHP-3ΔW20 (green ? ), to interact with lipid bilayers was determined by monitoring the release of entrapped calcein from unilamellar egg phosphatidylcholine liposomes.\nCalcein Release Assays – Membrane permeabilization assays were conducted as described in detail previously. Unilamellar liposomes were constructed as described above but with 30 mM calcein in 10 mM Hepes as the hydration buffer. Untrapped dye was removed by gel filtration (Sephacryl S-300 HR, GE Healthcare). Liposomes were diluted 1:1000 into phosphate buffered saline, and calcein fluorescence was monitored at 513 nm when excited at 484 nm. The percent calcein release was calculated relative to the 100% fluorescence intensity, achieved by the addition of 0.01% Triton X-100."}, "BSF T. b. brucei [3]": {"system": "BSF T. b. brucei", "assay": "2 h killing assay, BSF T. b. brucei", "assay_type": "cell-based, Trypanosoma brucei brucei", "conditions": "light microscopy (Fig. 1d, Figure S2a)"}, "Live BSF T. b. brucei": {"system": "Live BSF T. b. brucei", "assay": "Trypanosome motility scoring by DIC microscopy", "assay_type": "cell-based, Trypanosoma brucei brucei", "method": "All images and videos were acquired with an Axio Observer Z1 equipped with an AxioCam MRm controlled by AxioVision 4.6 software. Videos were acquired with live cells at a density of 1×10^7 cells/mL in HMI 9 media with 10 % fetal bovine serum, incubated with 40 µM SHP at 37°C. Trypanosomes were visualized at magnification 63 × and videos were recorded with 100-ms acquisition times. The motility of BSF trypanosomes was scored directly or from video playback. Trypanosome motility was classified as normal, hyperactive or constricted as described previously. An example of a trypanosome scored as normal is shown in Movie S1. […] Data in figure 2D is shown as the average of at least duplicate trials with standard deviations."}, "BSF T. b. brucei [4]": {"system": "BSF T. b. brucei", "assay": "Flow cytometry peptide binding", "assay_type": "cell-based, Trypanosoma brucei brucei", "conditions": "8 µM FITC-labeled peptide, 3×10^6 cells/ml, HMI 9 plus 10 % fetal bovine serum, 25 °C, 50,000 cells counted immediately, flow cytometry (Figure S1)", "method": "SHP binding to BSF T. b. brucei. FITC-labeled SHP-1 (blue ? ) and SHP-3 (green ? ) were assayed for binding to BSF T. b. brucei via flow cytometry (no peptide, red ? ) . Trypanosomes were adjusted to 3 × 10^6 cells/ml in HMI 9 media with 10 % fetal bovine serum, 8 µM FITC-SHP-1 or FITC-SHP-3 was added and 50,000 cells were immediately counted.\nFlow Cytometry – Peptide binding to BSF T. b. brucei was monitored by flow cytometry as described previously. Binding assays were performed with 3 × 10^6 cells/ml in HMI 9 plus 10 % fetal bovine serum at 25 °C. FITC-labeled SHP-1 or SHP-3 was added to a final concentration of 8 µM and 50,000 cells were immediately counted on a CyAn ADP flow cytometer (Dako). Data were analyzed with FlowJo software (TreeStar Inc.)."}, "[5]": {"conditions": "500 nM peptide, PBS, 37°C, 22 h"}, "[6]": {"conditions": "40 µM SHP, 37°C, 1×10^7 cells/mL, HMI 9 with 10 % fetal bovine serum, DIC microscopy, at least duplicate (Fig. 2d)"}}}
{"sequence": "SDLGAVIWLLLGGRQLFA [SHP-1∆W8, SHP-1 tryptophan variant, Trp at position 8]", "values": [{"measurement": "F1/F2 ± S.D.", "setting": "[1]; [5]", "result": "0.9767 ± 0.0717"}]}
{"sequence": "FHQIWAALLYFYGIILNSIY [SHP-3, non-trypanocidal small hydrophobic peptide derived from an apolipoprotein]", "values": [{"measurement": "membrane interaction (release of entrapped calcein from liposomes)", "setting": "[2]", "result": "exhibit membrane interaction"}, {"measurement": "insertion depth of native tryptophan, position 5", "setting": "[1]; 500 nM peptide, 200 µg/ml brominated egg PC liposomes, PBS, 37°C, 22 h", "result": "approximately 1.6 Å"}, {"measurement": "quenching of N-terminal tryptophan (position 1)", "setting": "[1]; Trp-substituted variant W1, suggests it does not intercalate into the hydrocarbon region", "result": "inefficiently quenched"}, {"measurement": "insertion depth of tryptophan at position 13", "setting": "[1]; Trp-substituted variant W13, 500 nM peptide, 200 µg/ml brominated egg PC liposomes, PBS, 37°C, 22 h", "result": "approximately 4.7 Å"}, {"measurement": "insertion depth of C-terminal tryptophan (position 20)", "setting": "[1]; Trp-substituted variant W20, 500 nM peptide, 200 µg/ml brominated egg PC liposomes, PBS, 37°C, 22 h", "result": "approximately 11.2 Å"}, {"measurement": "F1/F2 ± S.D.", "setting": "[1]; [5]", "result": "0.9202 ± 0.1260"}, {"measurement": "trypanocidal activity against BSF T. b. brucei", "setting": "BSF T. b. brucei [3]", "result": "no trypanocidal activity was detected"}, {"measurement": "constriction of motility following hyperactivation", "setting": "Live BSF T. b. brucei; [6]", "result": "subsequent constriction does not occur"}, {"measurement": "hyperactivation of motility", "setting": "Live BSF T. b. brucei; [6]", "result": "some hyperactivation"}, {"measurement": "motility approximately 30 sec after addition", "setting": "Live BSF T. b. brucei; 40 µM peptide, DIC video microscopy, representative cells (Movies S2, S3)", "result": "hyperactivated motility"}, {"measurement": "binding to BSF T. brucei", "setting": "BSF T. b. brucei [4]", "result": "binding to BSF T. brucei"}]}
{"sequence": "FHQIGAALLYFYGIILNSIW [SHP-3∆W20, SHP-3 tryptophan variant, Trp at position 20]", "values": [{"measurement": "F1/F2 ± S.D.", "setting": "[1]; [5]", "result": "1.1620 ± 0.3194"}]}
{"sequence": "FHQIGAALLYFYWIILNSIY [SHP-3∆W13, SHP-3 tryptophan variant, Trp at position 13]", "values": [{"measurement": "F1/F2 ± S.D.", "setting": "[1]; [5]", "result": "0.9912 ± 0.0787"}]}
{"sequence": "WDLGAVISLLLGGRQLFA [SHP-1∆W1, SHP-1 tryptophan variant, Trp at position 1]", "values": [{"measurement": "F1/F2 ± S.D.", "setting": "[1]; [5]", "result": "0.8897 ± 0.1112"}]}
{"sequence": "SDLGAVISLLLGGRQLFW [SHP-1∆W18, SHP-1 tryptophan variant, Trp at position 18]", "values": [{"measurement": "F1/F2 ± S.D.", "setting": "[1]; [5]", "result": "0.9285 ± 0.1557"}]}
